Earlier results as cited in patent US4127537A, “Novel tetracosapeptides, intermediates therefor and pharmaceutical compositions and methods employing said tetracosapeptides” (priority 1977, dated 1978).

Tests used:
[1] = test system: rat; details: injected directly into the brain of the rat; Belluzzi et al., Nature 260, 625 (1976)
[2] = test system: brain opiate receptor sites; details: natural peptide; Bradbury et al., Nature 260, 793 (1976)

## H-Tyr-Gly-Gly-Phe-Met-OH [methionine enkephalin]
[1]
  analgesic activity: weak analgesic agent of short duration
[2]
  binding to partially purified brain opiate receptor sites: binds stereo-specifically
